≈ marks a conversion by molar mass, not a printed value. Where “and” joins values, the source holds several entries; their conditions need not be identical. Equal entries are not always repeated. Where two headings read alike, the source gives them in different places.
Legend:
[1] = Maximum tolerated dose, one-time gavage dose in mice; format: in vivo
Procedure: […] Each dose of each compound consisted of one group of 3 mice. Monitoring of the mice was done twice a day for the duration of the experiment. […] The MTD (mg/kg) is the highest dose that results in no lethality/tissue abnormality.
• 1. […] The compounds are dissolved in the appropriate concentration of ethanol in distilled water and administered in a volume of 0.2 ml per mouse. • 2. Observation of mice: Mice will be observed 4 and 6 hours post administration, then twice daily for one week. Survival and body weight of mice will be closely monitored throughout the study. • 3. […] Critical organs will be aseptically removed and observed; tissues from the liver, heart, and kidneys are extracted and placed into 10% formalin solution. These fixed tissues are sectioned and examined for abnormalities resulting from drug toxicity.

[2] = format: in vitro ADME; conditions: 6 h
Procedure: (§1) Initially, analytical methods for determination of the compounds had been developed that allowed to carry out all the PK experiments, sec FIG. 29. Here is a brief description of the experiment: (1) plasma spiked with tested compounds and 10 uL of Terfenadine or plasma samples (200 uL) added; (2) ACN (2 mL) added to precipitate protein and spin at 2,500 rpm; (3) evaporate supernatant to dryness; (4) add 200 uL of the diluting solvent: methanol (with 0.1% of trifluoroacetic acid): ammonium acetate (80/20); (5) vortex, spin, and use supernatant; (6) run LC/MS/MS on Sciex API 3000.
Biostability studies of the compounds in plasma were carried out using concentrations 1 and 15 mg/ml. The compounds were incubated for 1, 2, 3 & 6 hr at 37° C. (Table 18).

[3] = Toxicity, dose escalation study in mice
Procedure: Toxicity was assessed using a dose escalation study. This study was performed with ten C57BL/6 mice per candidate. Every two days, the mice were administered an increased concentration of the drug, and monitored for detrimental effects. The administration scheme was 50, 100, 200, 400, 600, 800 and 1000 mg/kg.

[4] = in vivo; parameters: species or system mice; conditions: mouse
Procedure: as §1
Pilot PK study of the compounds 37, 59, and 109 in mice was conducted using a cassette dosing: all the three analogs were formulated together in saline at 1.5 mg/mL, and administered to mice simultaneously orally at 25 mg/kg, peritoneally at 6 mg/kg, and intravenously. […] Obtained data are presented on FIGS. 30, 31, and 32 (tested compounds were studied under the NCI′ indexation NSC) and summarized in Table 19.

[5] = system: cells; assay: LD50 for selectivity index (Table 10); format: cell-based, Mycobacterium tuberculosis; conditions: for SI (Selectivity Index): LD50 : MIC
Text: Table 10 lists MIC and LD50 data for selected compounds. […] Table 11 lists MIC data for purified substituted ethylene diamines in comparison to ethambutol (EMB).

[6] = system: H37Rv strain of Mycobacterium tuberculosis; assay: microbe, parasite or virus in culture; format: cell-based
[7] = system: monkey kidney cells (Vero); assay: In vitro toxicity, Vero cells; format: cell-based; conditions: Primates
Procedure: Twenty six compounds (including 37, 59 and 109) were tested in an in vitro model of toxicity using monkey kidney cells (Vero) and human cervical cancer cells (HeLa) using methods well known to those skilled in the art. The data from this toxicity testing and the MIC data were used to calculate a selectivity index (SI), the ratio of IC50:MIC (Table 15). Selectivity Indexes were ranging from 1.76 to 16.67.

[8] = system: M. tuberculosis H37Rv; assay: In vivo efficacy, mice infected i.v. with M. tuberculosis, CFU in spleen and lungs; parameters: species or system C57BL/6 mice
[9] = system: wild type of M.tb; assay: MIC, secondary screening, wild type; format: cell-based, Mycobacterium tuberculosis; conditions: WT
[10] = system: M. tuberculosis H37Rv; assay: MIC by BACTEC 460; format: cell-based, Mycobacterium tuberculosis; conditions: Mycobacterium tuberculosis, H37RV, reference in head of Table 11; read-out: BACTEC MIC of EMB
[11] = system: M. tuberculosis H37Rv; assay: Standard chronic mouse model of tuberculosis, CFU in lung; format: in vivo, C57BL/6 female mice; conditions: INH+RIF+EMB at 25, 20 and 100 mg/kg, wk 4
[12] = system: M. tuberculosis H37Rv (Pasteur); assay: Rapid in vivo model of TB, body weight of infected mice; parameters: species or system C3H female mice; conditions: Rif (2 mg/kg)-EMB (10 mg/kg) combination
[13] = system: RIF^R M. tuberculosis strain 3185; format: cell-based; conditions: strain 3185
[14] = system: RIF^R M. tuberculosis isolate 3185; assay: microbe, parasite or virus in culture; format: cell-based
[15] = system: H37Rv strain of Mycobacterium tuberculosis; conditions: background statement; cited from earlier work
[16] = system: RIF^R M. tuberculosis strain 2482; format: cell-based; conditions: strain 2482
[17] = system: RIF^R M. tuberculosis isolate 2482; assay: microbe, parasite or virus in culture; format: cell-based; conditions: strain 2482
[18] = concentration at which 50% of the cells are killed
[19] = Mycobacterium tuberculosis, H37RV, Table 10, from uM and MW, read-out: MIC
[20] = Mycobacterium tuberculosis, H37RV, Table 10, read-out: MIC
[21] = Mycobacterium tuberculosis, H37RV, Table 15, read-out: MIC
[22] = Mycobacterium tuberculosis, value in brackets, read-out: MIC (or uM)
[23] = Mycobacterium tuberculosis, EMB, RL241, Cmpd#59 as 2HCl salt, Cmpd#109 as 2CF3COOH salt, read-out: MIC

SMILES: CC1(C)C2CCC(CNCCNCC(c3ccccc3)c3ccccc3)[C@@H]1C2 (stereo partly drawn) [Compound 37, N-(2,2-Diphenylethyl)-N′-(−)-cis-(myrtanyl)ethane-1,2-diamine]
- Day of death ([1]; 37 at 100 mg/kg (Table 16)): 1
- Mice ([1]; 37 at 100 mg/kg (Table 16), day 1): 2 to 4 h
- Mice ([1]; 37 at 100 mg/kg (Table 16), day 2): 2
- Mice ([1]; 37 at 100 mg/kg (Table 16), day 3): 2
- Mice ([1]; 37 at 100 mg/kg (Table 16), day 4): 2
- Mice ([1]; 37 at 100 mg/kg (Table 16), day 6): 2
- Mice ([1]; 37 at 100 mg/kg (Table 16), day 7): 2
- Mice ([1]; 37 at 100 mg/kg (Table 17), day 1): 3
- Mice ([1]; 37 at 100 mg/kg (Table 17), day 2): 3
- Mice ([1]; 37 at 100 mg/kg (Table 17), day 3): 3
- Mice ([1]; 37 at 100 mg/kg (Table 17), day 4): 3
- Mice ([1]; 37 at 100 mg/kg (Table 17), day 5): 3
- Mice ([1]; 37 at 100 mg/kg (Table 17), day 6): 3
- Mice ([1]; 37 at 100 mg/kg (Table 17), day 7): 3
- Mice ([1]; 37 at 300 mg/kg, day 1): 3
- Mice ([1]; 37 at 300 mg/kg, day 2): 3
- Mice ([1]; 37 at 300 mg/kg, day 3): 3
- Mice ([1]; 37 at 300 mg/kg, day 4): 3
- Mice ([1]; 37 at 300 mg/kg, day 5): 3
- Mice ([1]; 37 at 300 mg/kg, day 6): 3
- Mice ([1]; 37 at 300 mg/kg, day 7): 3
- changes in organs ([1]; mice surviving one week): No visible changes in organs
- Biostability in plasma (% ↓) ([2]; dog): stable
- Biostability in plasma (% ↓) ([2]; human): 20% ↓
- Biostability in plasma (% ↓) ([2]; mouse): stable
- Biostability in plasma (% ↓) ([2]; rat): 35% ↓
- fatal dose ([3]; C57BL/6, mouse, in vivo, 2 days): 100 mg/kg
- toxic dose ([3]; dose escalation): 100 mg/kg
- AUC ([4]; ip, 6 mg/kg): 1370 ng·h/mL
- Cmax ([4]; ip, 6 mg/kg): 630 ng/mL
- Urine excretion (%) ([4]; ip, 6 mg/kg): <0.01%
- bioavailability ([4]; ip, 6 mg/kg): 72%
- half-life ([4]; ip, 6 mg/kg): 294 min
- AUC ([4]; iv, 3 mg/kg): 954 ng·h/mL
- Cmax ([4]; iv, 3 mg/kg): 970 ng/mL
- Urine excretion (%) ([4]; iv, 3 mg/kg): .71%
- clearance ([4]; iv, 3 mg/kg): 58.8 mL/min/kg
- half-life ([4]; iv, 3 mg/kg): 288 min
- AUC ([4]; po, 25 mg/kg): 1600 ng·h/mL
- Cmax ([4]; po, 25 mg/kg): 263 ng/mL
- bioavailability ([4]; po, 25 mg/kg): 3.3%
- SI (Selectivity Index) [5]: 2.048
- LD50 [5, 18]: 32 µM
- LD50 ([5]; from uM and MW): 15.872 µg/mL
- MIC [6, 19]: 7.75 µg/mL
- MIC [6, 20]: 15.6 µM
- MIC [6, 21]: 7.8 µM
- IC50 [7]: 32 µM

SMILES: C[C@@H]1[C@H]2C[C@@H](C[C@H]1NCCNC1CCCCCCC1)C2(C)C [Compound 59, N-(Cyclooctyl)-N′-(1R, 2R, 3R, 5S)-(−)-isopinocampheylethane-1,2-diamine]
- anti-tuberculosis activity compared with EMB ([8]; 10 mg/kg, B6 mice, 5×10^5 CFU, chemotherapy from day 20): comparable to that of EMB at 100 mg/kg
- Biostability in plasma (% ↓) ([2]; dog): stable
- Biostability in plasma (% ↓) ([2]; human): stable
- Biostability in plasma (% ↓) ([2]; mouse): stable
- Biostability in plasma (% ↓) ([2]; rat): stable
- MIC [9, 22]: 0.13 µM
- MIC [9, 23]: 0.05 µg/mL
- tolerated dose ([3]; C57BL/6, mouse, in vivo): 1000 mg/kg
- PK profiling (AUC, Cmax) [4]: relatively poor PK profiling
- AUC ([4]; ip, 6 mg/kg): 272 ng·h/mL
- Cmax ([4]; ip, 6 mg/kg): 217 ng/mL
- Urine excretion (%) ([4]; ip, 6 mg/kg): <0.01%
- bioavailability ([4]; ip, 6 mg/kg): 35%
- half-life ([4]; ip, 6 mg/kg): 582 min
- AUC ([4]; iv, 3 mg/kg): 384 ng·h/mL
- Cmax ([4]; iv, 3 mg/kg): 296 ng/mL
- Urine excretion (%) ([4]; iv, 3 mg/kg): 1.9%
- clearance ([4]; iv, 3 mg/kg): 134 mL/min/kg
- half-life ([4]; iv, 3 mg/kg): 384 min
- AUC ([4]; po, 25 mg/kg): 169 ng·h/mL
- Cmax ([4]; po, 25 mg/kg): 28.7 ng/mL
- bioavailability ([4]; po, 25 mg/kg): 0.9%
- SI (Selectivity Index) [5]: 2.048
- LD50 [5, 18]: 32 µM
- LD50 ([5]; from uM and MW): 13.632 µg/mL
- MIC [6, 19]: 6.66 µg/mL
- MIC [6, 20]: 15.6 µM
- MIC [6, 21]: 15.6 µM
- IC50 [7]: 36 µM

SMILES: CC[C@@H](CO)NCCN[C@@H](CC)CO [EMB, Ethambutol, reference compound]
- MIC [10]: 2.5 µg/mL
- CFU in lung [11]: 3.7 log10CFU
- body weight of infected mice [12]: No improvement
- interaction of 0.5 MIC ethambutol with rifampicin [13]: synergy was not observed
- decrease of load of bacteria in organs ([8]; during 4-6 weeks of chemotherapy): 1.0-2.0 logs
- MIC ([14]; Mycobacterium tuberculosis, read-out: MIC (BACTEC)): 2.5 µg/mL (≈ 12.2 µM)
- concentration to which the strain was susceptible ([14]; strain 3185): 2.5 mg/L
- Minimum Inhibition Concentration (MIC) [15]: about 5 μg/ml
- interaction of 0.5 MIC ethambutol with rifampicin [16]: did not show any additive or synergistic activity
- MIC [9, 22]: 11.1 µM
- MIC [9, 23]: 3.12 µg/mL
- MIC ([9]; EMB, RL241, Cmpd#59 as 2HCl salt, Cmpd#109 as 2CF3COOH salt): 1.6 to 1.8 µg/mL
- concentration to which the strain was susceptible [17]: 2.5 mg/L
- MIC [6]: 8.37 µM and 7.25 µM
- MIC ([6]; Mycobacterium tuberculosis, H37RV, read-out: MIC): 7.19 µM

— patent US8202910B2 (Sequella, Inc., priority 2006, dated 2012)
